# Measurements from patent publication US20250136650A1, “COMPOSITIONS AND METHODS FOR DNA BINDING AND TRANSCRIPTIONAL REGULATION” (THE UNIVERSITY OF CHICAGO, priority 2021, published 2025).
# Entries after “also recorded” stand apart in the source; their conditions may differ.
# How the values were obtained:
# [1] = Body weight and activity after single injection; format: in vivo, mouse; conditions: healthy mice, single injection IV or subcutaneous, 25, 10, 5 mg/kg
# Experimental: STR22 at various provided concentrations were added to 10× diluted plasma then added to 4× volume of methanol, centrifuged and used for LCMS detection (FIG. 112). Injection of different concentrations of STR22 was performed through either intravenous or subcutaneous. Blood was collected through submandibular bleed at different time points and analyze via established extraction and LCMS methods. […] Body weight change after a single injection of STR22 through intravenous (IV) or subcutaneous (Sub) was also measured.
# HIF1α = experiment: Western blot of HIF1α under hypoxia, MDA-MB-231; format: cell-based, human; conditions: MDA-MB-231, hypoxia
# Experimental: To study the effects of STR22 on hypoxia-induced gene transcription factor DNA binding and target gene expression, the induction of HIF1α and downstream HRE-target genes like VEGFA, PDK1, PGK1 and GLUT1 in response to acute hypoxia (e.g., 1% 02 for 6 hr) was validated.
# Immunoblotting. Following indicated treatments, cells were first washed with ice-cold PBS. Whole-cell extracts were prepared by directly lysing cells with Laemmli sample buffer (Bio-rad, 1610747) supplemented with 2-Mercaptoethanol (Gibco, 21985023), protease inhibitor (Roche, 4693159001), PMSF (Roche, 10837091001) and phosphatase inhibitor (GB-450) at 4° C. Finally, protein samples were boiled at 95° C. for 5 mins. Western blotting was performed using antibodies for XBP1 (Biolegend, 9D11A43), HIF1α (Novus Biologicals, NB100-479), GAPDH (Santa Cruz Biotech, sc-32233) and α-tubulin (Invitrogen, MA1-19401) were used. Blots were imaged using Li—COR Odyssey Fc.
# [2] = test system: HRE-regulated luciferase reporter; experiment: 5xHRE-regulated luciferase reporter under hypoxia; format: cell-based, human; conditions: HeLa, 1% O2, 24 hours
# Experimental: (§1) Luciferase Assays. Approximately 2×10^4 HeLa cells were seeded in the each well of a 96-well plate. Cells were co-transfected with 3×UPRE-luc (Addgene, 101788) and XBP1s overexpression construct or control vector using Lipofectamine 3000 (Invitrogen) for 4 hrs, which was then followed by treatment with STR22 for 24 hrs. Cells were then lysed in diluted cell culture lysis 5× buffer (Promega). 1× luciferase reagents (1 mM D-luciferin, 3 mM ATP, 15 mM MgSO4, 30 mM HEPES pH=7.8) were then added and the mixtures were read for luminescence. For hypoxia response experiments, cells were transfected with 5×HRE-luc (PGK1-derived HRE promoter, Addgene, 128095) vector using Lipofectamine 3000 (Invitrogen) for 4 hrs and then treated with STR22 under 1% 02 (hypoxia) for 24 hrs. Luminescence was read following the aforementioned protocol.
# [3] = test system: SUM159 cells, HRE-regulated genes; experiment: qPCR of hypoxia-induced genes, SUM159; format: cell-based; conditions: SUM159, 20 μM, 24 hours
# Experimental: Real-Time PCR. mRNA was extracted using RNeasy plus Mini Kit (Qiagen). 1.5 μg mRNA sample was reverse transcribed into cDNA using a reverse transcription kit (Invitrogen A48570) and then subjected to SYBR-green based real-time PCR analysis (Invitrogen A25741). Primers used: […]
# XBP1 = experiment: XBP1-driven luciferase reporter, tunicamycin induced; format: cell-based, human; conditions: HeLa, STR22 1.25-20 μM
# Experimental: HeLa cells were co-transfected with XBP1 transcriptionally driven luciferase plasmid and renilla plasmid. 6 hours after transfection, cells were treated for 12 hours with tunicamycin at 500 ng/mL and either STR22 at varying concentrations (20, 10, 5, 2.5, 1.25 μM) or KIRA8 at 10 μM.
# as §1
# MDA-MB-231 cells = experiment: Trypan blue cell viability; format: cell-based, human; conditions: MDA-MB231, 20 μM, 24 hours
# Text: Trypan Blue Cell Viability Assay. […] The cell suspension was then collected and subjected for trypan blue viability reading using trypan blue cell viability analyzer (Beckman Coulter Vi-CELL XR).
# AP-1 site = experiment: EMSA, direct binding to AP-1 DNA probe
# Text: (§2) The DNA binding dimer STR22 (shown in FIG. 21 and FIG. 27) was synthesized. STR22 was subjected to EMSA to measure binding to either the UPR element (UPRE) or AP-1 binding site (AP-1).
# bZIP transcriptional repressors FJSTR7 (shown in FIGS. 42 and 45), FJSTR71 (shown in FIGS. 52 and 53), and FJSTR72 (shown in FIGS. 52 and 54), were generated and tested.
# Electrophoretic Mobility Shift Assays (EMSAs): For direct DNA binding experiments, STRs were serially diluted at 10× concentration in water and then 1 μL of STR solution was added to 9 μL of 5 nM IRD700-labeled DNA probe bearing either a UPRE or AP-1 motif in a final 1×binding buffer (20 mM HEPES pH 8.0, 150 mM NaCl, 5% glycerol, 1 mM EDTA, 2 mM MgCl2, 0.5 mg/mL BSA, 1 mM DTT, 0.05% NP-40). Samples were incubated for 1 hr at RT. 5 μL of each reaction was loaded on an 8% acrylamide, 0.5×TBE gel equilibrated to 4° C. Samples were resolved for 60 min at 110 V and 4° C. with 0.5×TBE+1 mM MgCl2 running buffer. Gels were pre-run at 110 V for 15 min prior to sample loading. For competition experiments, 30 or 60 nM STRs and 5 nM labeled UPRE probe were incubated with 0, 7.8, 13, 21.6, 36, 60 or 100 nM unlabeled competitor oligo for 1 hr at RT. […] ImageJ was used to quantify band intensity and the fraction of bound DNA was calculated by dividing the band intensity of bound DNA by the band intensity of free DNA from the vehicle treated lane. […]
# UPRE mutant sequence = experiment: Competitive EMSA with mutant oligo; format: binding
# Experimental: as §2
# Electrophoretic Mobility Shift Assays (EMSAs): For direct DNA binding experiments, STRs were serially diluted at 10× concentration in water and then 1 μL of STR solution was added to 9 μL of 5 nM IRD700-labeled DNA probe bearing either a UPRE or AP-1 motif in a final 1×binding buffer (20 mM HEPES pH 8.0, 150 mM NaCl, 5% glycerol, 1 mM EDTA, 2 mM MgCl2, 0.5 mg/mL BSA, 1 mM DTT, 0.05% NP-40). Samples were incubated for 1 hr at RT. 5 μL of each reaction was loaded on an 8% acrylamide, 0.5×TBE gel equilibrated to 4° C. Samples were resolved for 60 min at 110 V and 4° C. with 0.5×TBE+1 mM MgCl2 running buffer. Gels were pre-run at 110 V for 15 min prior to sample loading. For competition experiments, 30 or 60 nM STRs and 5 nM labeled UPRE probe were incubated with 0, 7.8, 13, 21.6, 36, 60 or 100 nM unlabeled competitor oligo for 1 hr at RT. Gels were imaged using a Li—COR Odyssey. ImageJ was used to quantify band intensity and the fraction of bound DNA was calculated by dividing the band intensity of bound DNA by the band intensity of free DNA from the vehicle treated lane. A four-parameter dose-response curve fit to a plot of normalized fraction bound DNA vs. log STR concentration yielded an the apparent KD. […]
# SUM159 cells = experiment: Relative cell growth, SUM159; format: cell-based
substance,measurement,setting,value
XBP1-derived stapled dimer: RRK^KNR^AAQTARDRKKA#LSELEQQVVDLE linked to RRK^KNR^AAQTARDRKKARLSEL#QQVVDLE; FIG. 27 [STR22],activity and body weight,[1],No changes in activity or body weight observed
same,induction of HIF1α protein,HIF1α,did not affect the induction of HIF1α protein
same,hypoxia-induced HRE-regulated luciferase expression,[2],blocked this induction with potency equivalent to that observed in UPRE-reporter studies
same,hypoxia-induced gene expression (qPCR),[3],inhibited this induction
same,tunicamycin-induced luciferase expression,XBP1,inhibited tunicamycin-induced luciferase expression at all concentrations shown; also recorded: abrogated this induction
same,cell viability,MDA-MB-231 cells,did not impact cell viability
same,binding to control AP1 motif oligonucleotide,AP-1 site,undetectable binding
same,binding to / competition by mutant sequence,UPRE mutant sequence,not a mutant oligonucleotide; also recorded: not to the shown mutant sequence
same,cell growth under hypoxic conditions,SUM159 cells,significantly slowed cell growth
same,proliferation under normoxic conditions,SUM159 cells,little effect on the proliferation
